In US11028066B2, “Inhibitors of lysine specific demethylase-1” (CELGENE QUANTICEL RESEARCH, INC., priority 2014, dated 2021):
pIC50: −log10 of the molar value.

What was measured:
Kasumi-1 = Kasumi-1 AML cell line proliferation assay (Cell-MTS assay); format: cell-based; conditions: Homo sapiens, 168 hours incubation
Text: Colorimetric cellular assay to assess the ability of LSD-1 small molecule inhibitors to effect the proliferation of the established AML cancer cell line Kasumi-1.
This Cell-MTS assay is a 7-day plate based colorimetric assay which quantifies the amount of newly generated NADH in the presence and absence of test compound. These NADH levels are used as a proxy for the quantification of cancer cell proliferation.
The established cancer cell line Kasumi-1 with a verified p53 mutation were purchased from American Type Culture Collection (ATCC) and routinely passaged according to ATCC published protocols. For routine assay these cells were seeded at a density of 20,000 cells per 96-well. 24 hours after plating, cells received an 11 point dilution of test compound with final concentration ranges from 100 μM to 2.0 nM. Cells are incubated in the presence of compound for 168 hours at 37° C., 5% CO2. At the end of this compound incubation period, 80 μl of media is removed and 20 μL of CellTiter 96® AQueous Non-Radioactive Cell Proliferation Assay solution (Promega) is added. The cells are incubated until the OD490 is >0.6. IC50 values are calculated using the IDBS XLfit software package and include background subtracted OD490 values and normalization to DMSO controls.
Table 5 provides the Kasumi-1 cellular IC50 values of various substituted heterocyclic compounds disclosed herein.

THP-1 (AML) cells = experiment: LSD1 CD11b cellular assay (flow cytometry); format: cell-based; conditions: Homo sapiens, THP-1, 96 h; CD11b expressing cells, 4 days incubation
full-length human LSD1 = full-length human LSD1 (Homo sapiens (Human), UniProt O60341); experiment: In vitro enzyme inhibition assay LSD-1 (TR-FRET); format: biochemical; conditions: H3K4me1-biotin peptide
Summary of the method: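 Demethylase activity of full-length human LSD1 was detected by TR-FRET after 1 hour incubation at room temperature. Excitation was at 320 nm, with emission at 615 nm and 665 nm. IC50 values were derived from the inhibition data.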

## Cn1c(-c2ccc3c(c2)ncn3C)c(-c2ccc(C#N)c(F)c2)nc(N2CCC(N)CC2)c1=O [Example 60, 4-[6-(4-amino-piperidin-1-yl)-4-methyl-3-(1-methyl-1H-benzoimidazol-5-yl)-5-oxo-4,5-dihydro-pyrazin-2-yl]-2-fluoro-benzonitrile]
Kasumi-1
  pIC50: ≥ 7.00
THP-1 (AML) cells
  pIC50: > 7.00
full-length human LSD1
  pIC50: > 7.00

## COc1ccc(-c2c(-c3ccc(C#N)cc3)cc(N3CCC(N)CC3)c(=O)n2C)cc1 [Example 77, 4-[5-(4-aminopiperidin-1-yl)-2-(4-methoxyphenyl)-1-methyl-6-oxopyridin-3-yl]benzonitrile]
Kasumi-1
  pIC50: ≥ 7.00
THP-1 (AML) cells
  pIC50: > 7.00
full-length human LSD1
  pIC50: > 7.00

## Cc1ccc(-c2c(-c3ccc(C#N)c(F)c3)nc(NC[C@H]3CCNC3)c(=O)n2CCO)cc1 [Example 44, 4-(6-{[((3S)-pyrrolidin-3-yl)methyl]amino}-4-(2-hydroxyethyl)-3-(4-methylphenyl)-5-oxo(4-hydropyrazin-2-yl))-2-fluorobenzenecarbonitrile]
Kasumi-1
  pIC50: ≥ 7.00
THP-1 (AML) cells
  pIC50: > 7.00
full-length human LSD1
  pIC50: > 7.00

## COc1ccc(-c2c(-c3ccc(C#N)c(F)c3)cc(NC[C@H]3CCNC3)c(=O)n2C)cc1 [Example 70, (S)-2-fluoro-4-(2-(4-methoxyphenyl)-1-methyl-6-oxo-5-(pyrrolidin-3-ylmethylamino)-1,6-dihydropyridin-3-yl)benzonitrile]
Kasumi-1
  pIC50: ≥ 7.00
THP-1 (AML) cells
  pIC50: > 7.00
full-length human LSD1
  pIC50: > 7.00

## Cc1ccc(-c2c(-c3ccc(C#N)c(F)c3)cc(N3CCC(N)CC3)c(=O)n2C)cc1 [Example 76, 4-[5-(4-aminopiperidin-1-yl)-1-methyl-2-(4-methylphenyl)-6-oxopyridin-3-yl]-2-fluorobenzonitrile]
Kasumi-1
  pIC50: ≥ 7.00
THP-1 (AML) cells
  pIC50: > 7.00
full-length human LSD1
  pIC50: > 7.00

## Cc1ccc(-c2c(-c3ccc(C#N)c(F)c3)nc(N3CCC(N)CC3)c(=O)n2C)cn1 [Example 66, 4-[6-(4-Amino-piperidin-1-yl)-4-methyl-3-(6-methyl-pyridin-3-yl)-5-oxo-4,5-dihydro-pyrazin-2-yl]-2-fluoro-benzonitrile]
Kasumi-1
  pIC50: ≥ 7.00
THP-1 (AML) cells
  pIC50: > 7.00
full-length human LSD1
  pIC50: > 7.00

## Cc1ccc(-c2c(-c3ccc(C#N)cc3)nc(N3CCC(N)CC3)c(=O)n2CCCO)cc1 [Example 40, 4-[6-(4-amino-piperidin-1-yl)-4-(3-hydroxy-propyl)-5-oxo-3-p-tolyl-4,5-dihydro-pyrazin-2-yl]-benzonitrile]
Kasumi-1
  pIC50: ≥ 7.00
THP-1 (AML) cells
  pIC50: > 7.00
full-length human LSD1
  pIC50: > 7.00

## Cc1ccc(-c2c(-c3ccc(C#N)c(F)c3)nc(N3CCC(N)CC3)c(=O)n2CCCO)cc1 [Example 46, 4-[6-(4-aminopiperidyl)-4-(3-hydroxypropyl)-3-(4-methylphenyl)-5-oxo(4-hydropyrazin-2-yl)]-2-fluorobenzenecarbonitrile]
Kasumi-1
  pIC50: ≥ 7.00
THP-1 (AML) cells
  pIC50: > 7.00
full-length human LSD1
  pIC50: > 7.00

## COc1ccc(-c2c(-c3ccc(C#N)cc3)nc(NC[C@H]3CCNC3)c(=O)n2C)cc1 [Example 31, 4-[3-(4-methoxyphenyl)-4-methyl-5-oxo-6-{[(3S)-pyrrolidin-3-ylmethyl]amino}-4,5-dihydropyrazin-2-yl]benzonitrile]
Kasumi-1
  pIC50: ≥ 7.00
THP-1 (AML) cells
  pIC50: > 7.00
full-length human LSD1
  pIC50: > 7.00

## Cc1ccc(-c2c(-c3ccc(C#N)c(F)c3)nc(N3CCC(N)CC3)c(=O)n2CCO)cc1 [Example 42, 4-[6-(4-amino-piperidin-1-yl)-4-(2-hydroxy-ethyl)-5-oxo-3-p-tolyl-4,5-dihydro-pyrazin-2-yl]-2-fluoro-benzonitrile]
Kasumi-1
  pIC50: ≥ 7.00
THP-1 (AML) cells
  pIC50: > 7.00
full-length human LSD1
  pIC50: > 7.00

## COc1ccc(-c2c(-c3ccc(C#N)c(F)c3)nc(NC[C@H]3CCNC3)c(=O)n2C)cc1 [Example 55, 2-fluoro-4-{3-(4-methoxy-phenyl)-4-methyl-5-oxo-6-[((3S)-pyrrolidin-3-ylmethyl)-amino]-4,5-dihydro-pyrazin-2-yl}-benzonitrile]
Kasumi-1
  pIC50: ≥ 7.00
THP-1 (AML) cells
  pIC50: > 7.00
full-length human LSD1
  pIC50: > 7.00

## CN(C)c1ccc(-c2c(-c3ccc(C#N)c(F)c3)cc(N3CCC(N)CC3)c(=O)n2C)cn1 [Example 91, 4-{5-(4-aminopiperidyl)-2-[6-(dimethylamino)(3-pyridyl)]-1-methyl-6-oxo(3-hydropyridyl)}-2-fluorobenzenecarbonitrile]
Kasumi-1
  pIC50: ≥ 7.00
THP-1 (AML) cells
  pIC50: > 7.00
full-length human LSD1
  pIC50: > 7.00

## Cn1c(-c2ccc(C3CC3)cc2)c(-c2ccc(C#N)cc2)nc(N2CCC(N)CC2)c1=O [Example 33, 4-[6-(4-aminopiperidin-1-yl)-3-(4-cyclopropylphenyl)-4-methyl-5-oxo-4,5-dihydropyrazin-2-yl]benzonitrile]
Kasumi-1
  pIC50: ≥ 7.00
THP-1 (AML) cells
  pIC50: > 7.00
full-length human LSD1
  pIC50: > 7.00

## Cn1c(-c2ccc(C3CC3)cc2)c(-c2ccc(C#N)c(F)c2)cc(NC[C@H]2CCNC2)c1=O [Example 74, (S)-4-(2-(4-cyclopropylphenyl)-1-methyl-6-oxo-5-(pyrrolidin-3-ylmethylamino)-1,6-dihydropyridin-3-yl)-2-fluorobenzonitrile]
Kasumi-1
  pIC50: ≥ 7.00
THP-1 (AML) cells
  pIC50: > 7.00
full-length human LSD1
  pIC50: > 7.00
